Experimental data taken from patent US10174067B2, “Type of cytidine derivative and application thereof” (priority 2014, dated 2019).
Marks after values point to notes of the source that are not given here.

Assays:
[1] = system: HCT-116 colon cancer xenografts; assay: Tumor growth inhibition of HCT-116 colon cancer xenografts in tumor-bearing nude mice (tumor volume, TGI %, RTV, T/C %); type: in vivo, Balb/c Nude mice; conditions: for T/C % (relative tumor proliferation rate): dosage 400 mg/kg (G10-G16 study);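 on T/C % (relative tumor proliferation rate): control C is the vehicle-treated model control group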
Method in brief: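 Nude mice inoculated with HCT-116 cells (about 3×10^7 cells/mL in serum-free medium). Tumor diameter measured three times weekly and volume computed as V=3/4π(D/2)^3. Activity expressed as TGI (%) and T/C (%) from relative tumor volume Vt/V0, with V0 taken at grouping and dosing start; P<0.05 significant.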

[2] = Method in brief: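 Female SPF Balb/c nude mice bearing subcutaneous HCT-116 xenografts (3×10^6 cells, right hind limb), grouped at 60–150 mm^3, 6 per group; vehicle ethanol/Cremophor EL/saline 5:5:90. Body weight thrice weekly; tumours excised and weighed at sacrifice; Mean±SEM, unpaired t-test, P<0.05.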
[3] = Day 0, G10-G16 groups, single IP 400 mg/kg
[4] = Day 0, G10-G16 groups, single IP 400 mg/kg, Mean±SEM
[5] = Day 1, G10-G16 groups, single IP 400 mg/kg, Mean±SEM
[6] = Day 2, G10-G16 groups, single IP 400 mg/kg, Mean±SEM
[7] = Day 4, G10-G16 groups, single IP 400 mg/kg, Mean±SEM
[8] = Day 7, G10-G16 groups, single IP 400 mg/kg, Mean±SEM
[9] = Day 9, G10-G16 groups, single IP 400 mg/kg, Mean±SEM
[10] = Day 11, G10-G16 groups, single IP 400 mg/kg, Mean±SEM
[11] = Day 14, G10-G16 groups, single IP 400 mg/kg, Mean±SEM
[12] = Day 16, G10-G16 groups, single IP 400 mg/kg, Mean±SEM
[13] = Day 18, G10-G16 groups, single IP 400 mg/kg, Mean±SEM
[14] = Day 21, G10-G16 groups, single IP 400 mg/kg, Mean±SEM
[15] = Day 23, G10-G16 groups, single IP 400 mg/kg, Mean±SEM
[16] = Day 25, G10-G16 groups, single IP 400 mg/kg, Mean±SEM
[17] = Day 28, G10-G16 groups, single IP 400 mg/kg, Mean±SEM
[18] = Day 30, G10-G16 groups, single IP 400 mg/kg, Mean±SEM

Structure (SMILES): CCCCOC(=O)Nc1nc(=O)n([C@@H]2O[C@H](COC(=O)Cn3cnc([N+](=O)[O-])c3)C(O)C2(F)F)cc1I (stereo partly shown) [Compound G12]
- Day 0 (RTV) [1, 3]: 1.00
- Tumor volume, Day 0 [1, 4]: 70.49 ± 13.19* mm^3
- T/C % (relative tumor proliferation rate) ([1]; Day 0): 0.00%
- Day 1 (TGI %) ([1]; Day 1, G10-G16 groups, single IP 400 mg/kg): 62.26%
- Day 1 (RTV) [1, 5]: 1.12 ± 0.22
- Tumor volume, Day 1 [1, 5]: 68.13 ± 11.02** mm^3
- T/C % (relative tumor proliferation rate) ([1]; Day 1): 66.60%
- Day 2 (TGI %) ([1]; Day 2, G10-G16 groups, single IP 400 mg/kg): 63.70%
- Day 2 (RTV) [1, 6]: 1.28 ± 0.22
- Tumor volume, Day 2 [1, 6]: 80.54 ± 15.99** mm^3
- T/C % (relative tumor proliferation rate) ([1]; Day 2): 61.57%
- Day 4 (TGI %) ([1]; Day 4, G10-G16 groups, single IP 400 mg/kg): 58.48%
- Day 4 (RTV) [1, 7]: 1.80 ± 0.23
- Tumor volume, Day 4 [1, 7]: 123.31 ± 27.06** mm^3
- T/C % (relative tumor proliferation rate) ([1]; Day 4): 65.24%
- Day 7 (TGI %) ([1]; Day 7, G10-G16 groups, single IP 400 mg/kg): 51.81%
- Day 7 (RTV) [1, 8]: 3.07 ± 0.38
- Tumor volume, Day 7 [1, 8]: 208.41 ± 44.11** mm^3
- T/C % (relative tumor proliferation rate) ([1]; Day 7): 75.07%
- Day 9 (TGI %) ([1]; Day 9, G10-G16 groups, single IP 400 mg/kg): 49.03%
- Day 9 (RTV) [1, 9]: 4.37 ± 0.50
- Tumor volume, Day 9 [1, 9]: 300.88 ± 62.43* mm^3
- T/C % (relative tumor proliferation rate) ([1]; Day 9): 77.79%
- Day 11 (TGI %) ([1]; Day 11, G10-G16 groups, single IP 400 mg/kg): 51.33%
- Day 11 (RTV) [1, 10]: 7.11 ± 1.07
- Tumor volume, Day 11 [1, 10]: 475.09 ± 105.26** mm^3
- T/C % (relative tumor proliferation rate) ([1]; Day 11): 77.05%
- Day 14 (TGI %) ([1]; Day 14, G10-G16 groups, single IP 400 mg/kg): 39.61%
- Day 14 (RTV) [1, 11]: 13.07 ± 2.18
- Tumor volume, Day 14 [1, 11]: 869.70 ± 190.68* mm^3
- T/C % (relative tumor proliferation rate) ([1]; Day 14): 94.48%
- Day 16 (TGI %) ([1]; Day 16, G10-G16 groups, single IP 400 mg/kg): 30.00%
- Day 16 (RTV) [1, 12]: 19.45 ± 2.82
- Tumor volume, Day 16 [1, 12]: 1267.85 ± 225.13 mm^3
- T/C % (relative tumor proliferation rate) ([1]; Day 16): 112.70%
- Day 18 (TGI %) ([1]; Day 18, G10-G16 groups, single IP 400 mg/kg): 19.24%
- Day 18 (RTV) [1, 13]: 26.31 ± 5.44
- Tumor volume, Day 18 [1, 13]: 1613.91 ± 242.24 mm^3
- T/C % (relative tumor proliferation rate) ([1]; Day 18): 137.82%
- Day 21 (TGI %) ([1]; Day 21, G10-G16 groups, single IP 400 mg/kg): 21.29%
- Day 21 (RTV) [1, 14]: 32.69 ± 8.02
- Tumor volume, Day 21 [1, 14]: 1924.26 ± 257.46 mm^3
- T/C % (relative tumor proliferation rate) ([1]; Day 21): 139.66%
- Day 23 (TGI %) ([1]; Day 23, G10-G16 groups, single IP 400 mg/kg): 17.69%
- Day 23 (RTV) [1, 15]: 33.10 ± 7.89
- Tumor volume, Day 23 [1, 15]: 1943.90 ± 242.19 mm^3
- T/C % (relative tumor proliferation rate) ([1]; Day 23): 167.43%
- Day 25 (TGI %) ([1]; Day 25, G10-G16 groups, single IP 400 mg/kg): 17.26%
- Day 25 (RTV) [1, 16]: 36.50 ± 8.74
- Tumor volume, Day 25 [1, 16]: 2136.52 ± 258.58 mm^3
- T/C % (relative tumor proliferation rate) ([1]; Day 25): 168.82%
- Day 28 (TGI %) ([1]; Day 28, G10-G16 groups, single IP 400 mg/kg): 24.12%
- Day 28 (RTV) [1, 17]: 43.13 ± 14.83
- Tumor volume, Day 28 [1, 17]: 2040.64 ± 281.98 mm^3
- T/C % (relative tumor proliferation rate) ([1]; Day 28): 204.13%
- Day 30 (TGI %) ([1]; Day 30, G10-G16 groups, single IP 400 mg/kg): 16.67%
- Day 30 (RTV) [1, 18]: 49.17 ± 15.89
- Tumor volume, Day 30 [1, 18]: 2338.31 ± 292.39 mm^3
- T/C % (relative tumor proliferation rate) ([1]; Day 30): 198.17%
- Weight change rate, Day 0 [2, 3]: 0.00%
- Weight of mice, Day 0 [2, 4]: 20.05 ± 0.26 g
- Weight change rate, Day 1 [2, 5]: −2.59 ± 1.08%
- Weight of mice, Day 1 [2, 5]: 19.53 ± 0.36 g
- Weight change rate, Day 2 [2, 6]: −3.15 ± 0.93%
- Weight of mice, Day 2 [2, 6]: 19.42 ± 0.29 g
- Weight change rate, Day 4 [2, 7]: −1.54 ± 1.11%
- Weight of mice, Day 4 [2, 7]: 19.73 ± 0.25 g
- Weight change rate, Day 7 [2, 8]: −0.93 ± 1.50 %
- Weight of mice, Day 7 [2, 8]: 19.85 ± 0.21 g
- Weight change rate, Day 9 [2, 9]: 2.11 ± 2.28%
- Weight of mice, Day 9 [2, 9]: 20.45 ± 0.32 g
- Weight change rate, Day 11 [2, 10]: 3.34 ± 2.25%
- Weight of mice, Day 11 [2, 10]: 20.70 ± 0.36 g
- Weight change rate, Day 14 [2, 11]: 1.76 ± 2.11 %
- Weight of mice, Day 14 [2, 11]: 20.38 ± 0.32 g
- Weight change rate, Day 16 [2, 12]: 2.56 ± 1.91 %
- Weight of mice, Day 16 [2, 12]: 20.55 ± 0.34 g
- Weight change rate, Day 18 [2, 13]: 5.03 ± 2.23 %
- Weight of mice, Day 18 [2, 13]: 21.05 ± 0.46 g
- Weight change rate, Day 21 [2, 14]: 3.68 ± 2.13 %
- Weight of mice, Day 21 [2, 14]: 20.78 ± 0.48 g
- Day 22 Mortality ([2]; Day 22, single IP dose (mg/kg)): 0%
- Weight change rate, Day 23 [2, 15]: 4.37 ± 1.91 %
- Weight of mice, Day 23 [2, 15]: 20.92 ± 0.38 g
- Weight change rate, Day 25 [2, 16]: 6.69 ± 1.87 %
- Weight of mice, Day 25 [2, 16]: 21.38 ± 0.39 g
- Weight change rate, Day 28 [2, 17]: 4.43 ± 0.69%
- Weight of mice, Day 28 [2, 17]: 20.68 ± 0.31 g
- Weight change rate, Day 30 [2, 18]: 5.67 ± 0.86%
- Weight of mice, Day 30 [2, 18]: 20.93 ± 0.43 g
- clinical symptoms ([2]; after single IP dose, compared with model control group): no significant differences in clinical symptoms
